Source: US6896914B2, “Method for normalizing insulin levels” (priority 2001, dated 2005)

Key:
[1] = system: mammals including man; settings: cited from earlier work
[2] = system: overweight male human subjects; test: Example 1: double-blind study of enteric coated oral d-mannoheptulose with 1-glutamic acid, serum insulin, glucose and C-peptide; assay type: in vivo
Protocol: A six-week double-blind study would also determine if combining an amino acid (i.e., 1-glutamic acid) and enteric coating would enhance the bioavailability and efficacy of oral d-mannoheptulose and prevent diarrhea. The amount of amino acid used was 500 mg per dose.
Thirteen healthy male human subjects, aged thirty-seven to fifty-seven, each at least forty pounds overweight, underwent screening blood testing. The Automated Chemistry Profile used included the following measurements: Serum Glucose, BUN, Creatinine, BUN/Creatinine Ratio, Uric Acid, Sodium, Potassium, Chloride, Carbon Dioxide, Calcium, Phosphorous, Total Protein, Albumin, Globulin, A/G Ratio, Total Bilirubin, Alkaline Phosphatase, LDH, AST, ALT, and Iron. A Lipid Profile, and CBC with Differential were also measured. Tests specific to this study included C-Peptide, Serum Insulin, and Hemoglobin A1c.
Subjects were randomly placed into two groups: “A” (Purple Caps) and “B” (Green Caps). Neither subject nor investigator knew which dosage forms were active and which were placebo. Once a week for three weeks, all subjects came to a local medical office while fasting and, stayed for a period of at least four hours. Blood was drawn from each subject in the fasting state, immediately following a high sugar meal, and at one and three hours after taking 500 mg. of MH. Additionally, fasting blood levels of glucose and insulin were drawn two times a week.
The intent was to cross over the patient test groups at the end of three weeks. But, the response of the group receiving active substance was so obvious that any attempt to continue the double-blind methodology in secrecy was pointless. The active compound group not only stabilized their eating patterns, but also experienced considerable weight loss.
At the end of the third week, the code was broken, confirming that the subjects with the dramatic response were getting the active oral dosage form. Thereafter, all subjects were given the same active dosage form.

[3] = system: overweight hyperinsulinemic male and female subjects; test: Example 2: placebo-controlled crossover study of enteric coated d-manno-heptulose capsules, insulin, glucose, weight; assay type: in vivo, human
Protocol: All study subjects had serum insulin, blood glucose, and C-peptide levels drawn. The relationship of insulin to glucose was determined by the following formula: Glucose (mg %)×0.41−34=Insulin Thus: 83 mg % glucose×0.41=34.03−34=0.03 or, insulin vanishes from the blood at 83 mg %. Subjects were male and females under the age of 50, who were at least 45 pounds overweight according to the body mass index (BMI). […] Sixteen subjects were given 500 mg of d-manno-heptulose (MH) in enteric coated capsules. Sixteen subjects were given placebo in similar appearing capsules. All subjects received doses four times a day, which were orally ingested in the presence of the investigator. Insulin and glucose levels were drawn one hour after ingesting capsules, two hours afterwards, and four hours afterwards. C-peptide levels were measured once a day. Patients were asked to keep meal logs, recording everything that they ingested by mouth, on a daily basis, for the duration of the study. The subjects and investigators were both blind to the group receiving active medication. At the end of three weeks, the test groups were switched. The group receiving active dosage forms was switched with the group receiving placebo. The initial time period was designed to be three weeks. However, four patients dropped out because they found the schedule too demanding. Nine of the control group patients expressed a desire to quit, and four were allowed to withdraw. The remaining twenty-four subjects completed the six week period.

[4] = system: Hexokinase; settings: cited from earlier work
[5] = system: obese patients; settings: cited from earlier work
[6] = twelve active medication subjects, first three weeks

For O=C(CO)[C@@H](O)[C@@H](O)[C@H](O)[C@H](O)CO [MH, d-mannoheptulose], the “effect on insulin release” value ([1]; mammals including man) is listed as “lower fasting and glucose stimulated peak insulin release”, the “absorption on oral administration” value ([1]; oral) is listed as “poor absorption on oral administration” and the “side effects on oral administration” value ([1]; oral) is listed as “unpleasant side effects (e.g., diarrhea, nausea)”. The “weight loss and carbohydrate craving reported by participants” value ([2]; all study participants) was “significant weight-loss and reduction in carbohydrate craving”, the “average fasting serum insulin lower than baseline” value ([2]; end of study vs baseline at beginning of study) was 26.41% and the “average reduction in C-peptide levels” value ([2]; end of study vs baseline, two subjects) was 43%. The “fasting serum glucose higher than baseline” value ([2]; end of study vs baseline, called insignificant) was 1.52%, the “lowering elevated serum insulin” value ([2]; enterically coated MH) was “effective short-term and long-term” and the nausea or diarrhea ([2]; enterically coated MH) was “not one instance of nausea or diarrhea was reported”. The indications of toxicity ([2]; hematological or symptomatic, any subject) was “no hematological or symptomatic indications of toxicity”, the “glycemic state of participant hypoglycemic at entry” value ([2]; one study participant) was “became normalglycemic” and the “serum insulin lower than baseline fasting insulin” value ([2]; three hours after one dose of MH, same-day glucose challenge, average) was 22.4%. For the same compound, the average glucose increase ([2]; three hours after one dose of MH, same-day glucose challenge, called insignificant) was 1.92%, the Fasting insulin ([3]; after active medication for three days, all subjects of A group) was 0 and the “time to begin lowering plasma insulin levels” value ([3]; after administration) was “two”. For the same compound, the “tolerance for high-sugar foods” value ([3]; all MH recipients while on medication) was “diminished tolerance for high-sugar foods”, the Fasting insulin ([3]; control group changed from placebo to MH, middle of second day, after six doses) was 0 and the “average per day weight loss” value ([3]; control group changed from placebo to MH, over twenty-one days) was 2.2 lbs. The “average weight loss after switch to placebo” value ([3]; original twelve active patients) was 0.7 lbs. per day, the “duration of insulin suppressing action after switch to placebo” value ([3]; original twelve active patients, on average) was “eleven” and the Average weight loss [3, 6] was 1.6 lbs. per day per subject. The greatest weight loss [3, 6] was 1.9 lbs. per day, the lowest weight loss [3, 6] was 1.2 lbs. per day and the “average decrease of insulin levels” value ([3]; two hours after administration of MH, A group, twelve subjects) was 81%. The inhibition of hexokinase [4] was “inhibits hexokinase in a predominantly competitive manner”.
In the case of CC1=NS(=O)(=O)c2cc(Cl)ccc2N1 [diazoxide], the “effect on blood pressure” value [5] is listed as “drops blood pressure dangerously” and the “effect on insulin levels” value [5] is listed as “lowers insulin levels”.
